# Patent US5101054A, “Novel fluorine-containing platinum complex” (priority 1989, dated 1992)
# Read-outs that look alike come from different tables or passages of the source.
# Assays:
# [1] = system: Mouse leukemia cells L1210; assay: Experiment 1 anti-tumor activity test in L1210 implanted CDF1 mice; format: in vivo; settings: for T/C: L1210 i.p. implanted CDF1 mice; for Number of survived mice (on 30th day): survivors/total on 30th day
# Description: Mouse leukemia cells L1210 (1×10^5) were implanted intraperitoneally to CDF1 mice (female, aged: 8 weeks) on the 0 day of implantation. CDDP and CBDCA were used as a reference. The anti-tumor activity of the platinum complexes in L1210 implanted mice were expressed by the T/C value, which was determined according to the following equation, and by the number of mice which survived until the 30th day of implantation. [formula]
# [2] = system: cisplatin resistant mouse leukemia cells L1210 (L1210/CDDP); assay: Experiment 2 growth inhibition of cisplatin resistant L1210/CDDP cells; format: cell-based
# [3] = system: L1210 cells; assay: Experiment 2 growth inhibition of L1210 cells; format: cell-based, mouse; settings: text calls it IC50
# Description: The drug sensitivity (a) was determined according to the following equation. [formula]
# [4] = Experiment 3 blood urea nitrogen (BUN) and body weight in ICR mice; settings: for Difference of weights: average weight 12th day vs 1st day; for BUN value: blood on 12th day, control 27.2 ± 1.9
# [5] = mouse, in vivo
Molecule,T/C ([1]; dose 12.5 mg/kg) [%],Number of survived mice (on 30th day) ([1]; dose 12.5 mg/kg),T/C ([1]; dose 25 mg/kg) [%],Number of survived mice (on 30th day) ([1]; dose 25 mg/kg),T/C ([1]; dose 50 mg/kg) [%],Number of survived mice (on 30th day) ([1]; dose 50 mg/kg),T/C ([1]; dose 100 mg/kg) [%],Number of survived mice (on 30th day) ([1]; dose 100 mg/kg),IC50 L1210/CDDP [2] [µg/mL],other results
"N.N.O=C([O-])C1(C(=O)[O-])CCC1.[Pt+2] [CBDCA, cisdiamino-1,1-cyclobutanedicarboxylato platinum (II)]",139,0/6,199,0/6,340,2/6,366,2/6,1.82,"IC50 [3]: 0.25 µg/mL; Difference of weights ([4]; dose 100 mg/kg on days 1, 5, 9): -3.0 g; BUN value ([4]; dose 100 mg/kg on days 1, 5, 9): 21.0 ± 4.0 mg/dL"
"N.N.[Cl][Pt][Cl] [CDDP, cis-dichlorodiamine platinum (II)]",282,1/6,367,4/6,,,,,0.50,"T/C ([1]; dose 6.25 mg/kg): 227%; Number of survived mice (on 30th day) ([1]; dose 6.25 mg/kg): 0/6; Difference of weights ([4]; dose 18 mg/kg on days 1, 5, 9): -4.8 g; BUN value ([4]; dose 18 mg/kg on days 1, 5, 9): 83.7 mg/dL; Difference of weights ([4]; dose 25 mg/kg on days 1, 5, 9): -8.9 g; BUN value ([4]; dose 25 mg/kg on days 1, 5, 9): 112.3 ± 16.6 mg/dL"
"CC(CN)(CN)C(F)(F)F.O=C([O-])C1(C(=O)[O-])CCC1.[Pt+2] [Compound of Ex. 2, cis-(2-methyl-2-trifluoromethyl-1,3-propanediamine)-1,1-cyclobutanedicarboxylato platinum (II)]",,,,,192,0/6,267,0/6,,
"cis-dichloro-(2-methyl-2-trifluoromethyl-1,3-propanediamine)platinum (II) [Compound of Ex. 1]",> 304,3/6,375,6/6,273,0/6,,,0.10,BUN value ([5]; 25 mg/kg): 23.3 mg/dL; Difference of weights ([5]; 25 mg/kg): -2.3 g; BUN value ([5]; 50 mg/kg): 17.8 mg/dL; Difference of weights ([5]; 50 mg/kg): -5.4 g
